Experimental data as given in PubChem BioAssay (NCI).
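Five concentrations, 48 hours, 96-well plates. TGI is the concentration that stops growth completely.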

Columns and labels:
Assay in all cases: NCI tumour cell line growth inhibition, 48 h
786-0 renal = tested on: 786-0 renal
A498 renal = tested on: A498 renal
A549 NSCLC = tested on: A549 NSCLC
ACHN renal = tested on: ACHN renal
CAKI-1 renal = tested on: CAKI-1 renal
CCRF-CEM leukemia = tested on: CCRF-CEM leukemia
COLO 205 colon = tested on: COLO 205 colon
DLD-1 colon = tested on: DLD-1 colon
DMS 114 small cell lung = tested on: DMS 114 small cell lung
DMS 273 small cell lung = tested on: DMS 273 small cell lung
EKVX NSCLC = tested on: EKVX NSCLC
HCC-2998 colon = tested on: HCC-2998 colon
HCT-116 colon = tested on: HCT-116 colon
HCT-15 colon = tested on: HCT-15 colon
HL-60(TB) leukemia = tested on: HL-60(TB) leukemia
HOP-18 NSCLC = tested on: HOP-18 NSCLC
HOP-62 NSCLC = tested on: HOP-62 NSCLC
HT29 colon = tested on: HT29 colon
IGROV1 ovarian = tested on: IGROV1 ovarian
K-562 leukemia = tested on: K-562 leukemia
KM12 colon = tested on: KM12 colon
KM20L2 colon = tested on: KM20L2 colon
LOX IMVI melanoma = tested on: LOX IMVI melanoma
LXFL 529 NSCLC = tested on: LXFL 529 NSCLC
M14 melanoma = tested on: M14 melanoma
M19-MEL melanoma = tested on: M19-MEL melanoma
MALME-3M melanoma = tested on: MALME-3M melanoma
MOLT-4 leukemia = tested on: MOLT-4 leukemia
NCI-H226 lung = tested on: NCI-H226 lung
NCI-H23 lung = tested on: NCI-H23 lung
NCI-H460 lung = tested on: NCI-H460 lung
NCI-H522 lung = tested on: NCI-H522 lung
OVCAR-3 ovarian = tested on: OVCAR-3 ovarian
RPMI-8226 leukemia = tested on: RPMI-8226 leukemia
RXF 393 renal = tested on: RXF 393 renal
RXF-631 renal = tested on: RXF-631 renal
SF-268 CNS = tested on: SF-268 CNS
SF-295 CNS = tested on: SF-295 CNS
SF-539 CNS = tested on: SF-539 CNS
SK-MEL-2 melanoma = tested on: SK-MEL-2 melanoma
SK-MEL-28 melanoma = tested on: SK-MEL-28 melanoma
SK-OV-3 ovarian = tested on: SK-OV-3 ovarian
SN12C renal = tested on: SN12C renal
SNB-19 CNS = tested on: SNB-19 CNS
SNB-75 CNS = tested on: SNB-75 CNS
SNB-78 CNS = tested on: SNB-78 CNS
SW-620 colon = tested on: SW-620 colon
TK-10 renal = tested on: TK-10 renal
U251 CNS = tested on: U251 CNS
UACC-257 melanoma = tested on: UACC-257 melanoma
UACC-62 melanoma = tested on: UACC-62 melanoma
UO-31 renal = tested on: UO-31 renal
XF 498 CNS = tested on: XF 498 CNS

Question: What does the source list for `Cc1cc(C)c(C(=O)OC(c2ccccc2)C(c2ccccc2)N2CCOCC2)c(C)c1` (stereo not drawn)?
Answer: TGI (786-0 renal): > 100 µM; TGI (A498 renal): > 100 µM; TGI (A549 NSCLC): > 100 µM; TGI (ACHN renal): > 100 µM; TGI (CAKI-1 renal): > 100 µM; TGI (CCRF-CEM leukemia): > 100 µM; TGI (COLO 205 colon): > 100 µM; TGI (DLD-1 colon): > 100 µM; TGI (DMS 114 small cell lung): > 100 µM; TGI (DMS 273 small cell lung): > 100 µM; TGI (EKVX NSCLC): > 100 µM; TGI (HCC-2998 colon): > 100 µM; TGI (HCT-116 colon): > 100 µM; TGI (HCT-15 colon): > 100 µM; TGI (HL-60(TB) leukemia): > 100 µM; TGI (HOP-18 NSCLC): > 100 µM; TGI (HOP-62 NSCLC): > 100 µM; TGI (HT29 colon): > 100 µM; TGI (IGROV1 ovarian): > 100 µM; TGI (K-562 leukemia): > 100 µM; TGI (KM12 colon): > 100 µM; TGI (KM20L2 colon): > 100 µM; TGI (LOX IMVI melanoma): > 100 µM; TGI (LXFL 529 NSCLC): > 100 µM; TGI (M14 melanoma): > 100 µM; TGI (M19-MEL melanoma): > 100 µM; TGI (MALME-3M melanoma): > 100 µM; TGI (MOLT-4 leukemia): > 100 µM; TGI (NCI-H226 lung): > 100 µM; TGI (NCI-H23 lung): > 100 µM; TGI (NCI-H460 lung): > 100 µM; TGI (NCI-H522 lung): > 100 µM; TGI (OVCAR-3 ovarian): > 100 µM; TGI (RPMI-8226 leukemia): 85.3 µM; TGI (RXF 393 renal): > 100 µM; TGI (RXF-631 renal): > 100 µM; TGI (SF-268 CNS): > 100 µM; TGI (SF-295 CNS): > 100 µM; TGI (SF-539 CNS): > 100 µM; TGI (SK-MEL-2 melanoma): > 100 µM; TGI (SK-MEL-28 melanoma): > 100 µM; TGI (SK-OV-3 ovarian): > 100 µM; TGI (SN12C renal): > 100 µM; TGI (SNB-19 CNS): > 100 µM; TGI (SNB-75 CNS): > 100 µM; TGI (SNB-78 CNS): > 100 µM; TGI (SW-620 colon): > 100 µM; TGI (TK-10 renal): > 100 µM; TGI (U251 CNS): > 100 µM; TGI (UACC-257 melanoma): > 100 µM; TGI (UACC-62 melanoma): > 100 µM; TGI (UO-31 renal): > 100 µM; TGI (XF 498 CNS): > 100 µM
